Patent US9113629B2, “4-amino-6-(4-substituted-phenyl)-picolinates and 6-amino-2-(4-substituted-phenyl)-pyrimidine-4-carboxylates and their use as herbicides” (DOW AGROSCIENCES LLC, priority 2013, dated 2015)
Like-named read-outs stand apart in the source and are kept apart here.

How the values were obtained:
[1] = test system: Key Broadleaf Weed and Crop Species; test: Post-emergent Test II herbicidal activity (Table 5); type: in vivo; details: post-emergence, 336 h, post-emergent, 14 days after application; for pest or weed control at 70 g/ha: 70 g ai/ha; for pest or weed control at 140 g/ha: 140 g ai/ha
Procedure, shortened: (§1)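 Test species were raised 7–21 d under greenhouse conditions until reaching the first or second true leaf, sprayed with formulated compound at 187 L/ha, and kept subirrigated to avoid wash-off. Fourteen days later, damage was rated visually on a 0–100% scale against untreated plants.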

[2] = test system: Key Grass and Sedge Weeds as well as Grass Crops; test: Post-emergent Test II herbicidal activity (Table 6); type: in vivo; details: post-emergence, 336 h; for pest or weed control at 70 g/ha: application rate 70 g ai/ha; for pest or weed control at 140 g/ha: application rate 140 g ai/ha
Procedure, shortened: as §1

[3] = ABUTH: velvetleaf (Abutilon theophrasti), read-out: Visual Growth Reduction (%) 14 Days After Application ABUTH
[4] = AMARE: redroot pigweed (Amaranthus retroflexus), read-out: Visual Growth Reduction (%) 14 Days After Application AMARE
[5] = BRSNN: oilseed-rape, canola (Brassica napus), read-out: Visual Growth Reduction (%) 14 Days After Application BRSNN
[6] = CHEAL: lambsquarters (Chenopodium album), read-out: Visual Growth Reduction (%) 14 Days After Application CHEAL
[7] = EPHHL: wild poinsettia (Euphorbia heterophylla), read-out: Visual Growth Reduction (%) 14 Days After Application EPHHL
[8] = HELAN: sunflower (Helianthus annuus), read-out: Visual Growth Reduction (%) 14 Days After Application HELAN
[9] = VIOTR: wild pansy (Viola tricolor), read-out: Visual Growth Reduction (%) 14 Days After Application VIOTR
[10] = Triticum aestivum, TRZSS (wheat), read-out: Visual Growth Reduction (%) 14 Days After Application, TRZSS
[11] = CYPES: yellow nutsedge (Cyperus esculentus), read-out: Visual Growth Reduction (%) 14 Days After Application, CYPES
[12] = DIGSA: crabgrass (Digitaria sanguinalis), read-out: Visual Growth Reduction (%) 14 Days After Application, DIGSA
[13] = ECHCG: barnyardgrass (Echinochloa crus-galli), read-out: Visual Growth Reduction (%) 14 Days After Application, ECHCG
[14] = ORYSA: rice (Oryza sativa), read-out: Visual Growth Reduction (%) 14 Days After Application, ORYSA
[15] = SETFA: giant foxtail (Setaria faberi), read-out: Visual Growth Reduction (%) 14 Days After Application, SETFA
[16] = SORVU: grain sorghum (Sorghum vulgare), read-out: Visual Growth Reduction (%) 14 Days After Application, SORVU
[17] = ZEAMX: maize, corn (Zea mays), read-out: Visual Growth Reduction (%) 14 Days After Application, ZEAMX

SMILES: COC(=O)c1nc(-c2ccc(I)c(F)c2)c(Cl)c(N)c1Cl [Compound 13, Methyl 4-amino-3,5-dichloro-6-(3-fluoro-4-iodophenyl)picolinate]
- pest or weed control at 70 g/ha [1, 3]: 85 to 94%
- pest or weed control at 140 g/ha [1, 3]: 95 to 100%
- pest or weed control at 70 g/ha [1, 4]: 85 to 94%
- pest or weed control at 140 g/ha [1, 4]: 95 to 100%
- pest or weed control at 70 g/ha [1, 5]: 85 to 94%
- pest or weed control at 140 g/ha [1, 5]: 85 to 94%
- pest or weed control at 70 g/ha [1, 6]: 95 to 100%
- pest or weed control at 140 g/ha [1, 6]: 95 to 100%
- pest or weed control at 70 g/ha [1, 7]: 0 to 29%
- pest or weed control at 140 g/ha [1, 7]: 30 to 44%
- pest or weed control at 70 g/ha [1, 8]: 95 to 100%
- pest or weed control at 140 g/ha [1, 8]: 95 to 100%
- pest or weed control at 70 g/ha [1, 9]: 0 to 29%
- pest or weed control at 140 g/ha [1, 9]: 0 to 29%
- pest or weed control at 70 g/ha [2, 10]: 45 to 59%
- pest or weed control at 140 g/ha [2, 10]: 60 to 74%
- pest or weed control at 70 g/ha [2, 11]: 75 to 84%
- pest or weed control at 140 g/ha [2, 11]: 75 to 84%
- pest or weed control at 70 g/ha [2, 12]: 60 to 74%
- pest or weed control at 140 g/ha [2, 12]: 75 to 84%
- pest or weed control at 70 g/ha [2, 13]: 60 to 74%
- pest or weed control at 140 g/ha [2, 13]: 75 to 84%
- pest or weed control at 70 g/ha [2, 14]: 0 to 29%
- pest or weed control at 140 g/ha [2, 14]: 0 to 29%
- pest or weed control at 70 g/ha [2, 15]: 45 to 59%
- pest or weed control at 140 g/ha [2, 15]: 75 to 84%
- pest or weed control at 70 g/ha [2, 16]: 85 to 94%
- pest or weed control at 140 g/ha [2, 16]: 85 to 94%
- pest or weed control at 70 g/ha [2, 17]: 60 to 74%
- pest or weed control at 140 g/ha [2, 17]: 60 to 74%
